Laboratory results as given in ChEMBL document CHEMBL1133530, “Classification of multidrug-resistance reversal agents using structure-based descriptors and linear discriminant analysis” (2000).

Species on record: Mus musculus
Test: Tested for the multidrug resistance reversal activity against P388 murine leukemia cell line, activity is expressed as RF(ED50 with no adriamycin (ADR)/ED50 with 200 nM ADR)
Type: functional

Compared with `CCN(CC)CCOC1CCC2(C)C(=CCC3C4CCC(=O)C4(C)CCC32)C1` (stereo not drawn), `CCCCc1oc2ccccc2c1C(=O)c1cc(I)c(OCCN(CC)CC)c(I)c1` [AMIODARONE] is lower in RF: 60 for the first, 5.6 for the second.

Going from `COc1ccc(CCC2NCCc3cc(OC)c(OC)cc32)cc1` (stereo not drawn) to `COc1ccc(CCNCC(O)COc2cccc(C)c2)cc1OC` (stereo not drawn) [BEVANTOLOL], the RF falls from 100 to 50.

First: O=C(OCCN1CCN(CCOC(=O)C(c2ccccc2)c2ccccc2)CC1)C(c1ccccc1)c1ccccc1
Second: OCCN1CCN(CC/C=C2/c3ccccc3Sc3ccc(Cl)cc32)CC1 [ZUCLOPENTHIXOL]
The RF of the first is higher: 300 for the first, 15 for the second.

Going from `NCCc1ccccc1` [PHENETHYLAMINE] to `COc1ccc(CCN(C)CCCC(C#N)(c2ccc(OC)c(OC)c2)C(C)C)cc1OC` (stereo not drawn) [VERAPAMIL], the RF rises from 1 to 100.
